From ChEMBL document CHEMBL4118288, “Antiplasmodial activity of hydroxyethylamine analogs: Synthesis, biological activity and structure activity relationship of plasmepsin inhibitors” (Bioorg Med Chem, 2018)
Each block holds one compound with its values, some of them ahead of it.

Legend:
[1] = system: Plasmodium falciparum; experiment: Antiplasmodial activity against chloroquine-susceptible blood forms of Plasmodium falciparum 3D7 infected in human erythrocytes measured after 48 hrs by SYBR green1 staining based fluorescence assay; format: functional, organism-based; conditions: 3D7, 48 h
[2] = molecular target: Plasmepsin II (Plasmodium falciparum) (UniProt P46925); experiment: Inhibition of Plasmodium falciparum Plm2 at 10 uM using synthetic substrate pretreated for 5 mins followed by substrate addition measured immediately by spectrophotometric method relative to control
[3] = molecular target: Plasmepsin 4 (Plasmodium falciparum) (UniProt Q17SB2); experiment: Inhibition of Plasmodium falciparum Plm4 at 10 uM using synthetic substrate pretreated for 5 mins followed by substrate addition measured immediately by spectrophotometric method relative to control
[4] = molecular target: Plasmepsin II (Plasmodium falciparum) (UniProt P46925); experiment: (§1) Inhibition of Plasmodium falciparum Plm2 using synthetic substrate pretreated for 5 mins followed by substrate addition measured immediately by spectrophotometric method
[5] = molecular target: Plasmepsin II (Plasmodium falciparum, UniProt P46925); experiment: as §1
[6] = molecular target: Plasmepsin 4 (Plasmodium falciparum) (UniProt Q17SB2); experiment: (§2) Inhibition of Plasmodium falciparum Plm4 using synthetic substrate pretreated for 5 mins followed by substrate addition measured immediately by spectrophotometric method
[7] = molecular target: Plasmepsin 4 (Plasmodium falciparum, UniProt Q17SB2); experiment: as §2
[8] = system: HepG2; experiment: Cytotoxicity against human HepG2 cells after 48 hrs by MTT assay; format: cell-based; conditions: HepG2, 48 h
[9] = system: Vero; experiment: Cytotoxicity against African green monkey Vero cells after 48 hrs by MTT assay; format: cell-based; conditions: Chlorocebus sabaeus
[10] = Therapeutic index, ratio of IC50 for human HepG2 cells to IC50 for chloroquine-susceptible blood forms of Plasmodium falciparum 3D7 infected in human erythrocytes; format: toxicity, cell-based; conditions: read-out: Ratio IC50
[11] = Therapeutic index, ratio of IC50 for African green monkey Vero cells to IC50 for chloroquine-susceptible blood forms of Plasmodium falciparum 3D7 infected in human erythrocytes; format: toxicity, cell-based; conditions: read-out: Ratio IC50

Plasmepsin II (Plasmodium falciparum), sequence (P46925 125-453 limits assumed): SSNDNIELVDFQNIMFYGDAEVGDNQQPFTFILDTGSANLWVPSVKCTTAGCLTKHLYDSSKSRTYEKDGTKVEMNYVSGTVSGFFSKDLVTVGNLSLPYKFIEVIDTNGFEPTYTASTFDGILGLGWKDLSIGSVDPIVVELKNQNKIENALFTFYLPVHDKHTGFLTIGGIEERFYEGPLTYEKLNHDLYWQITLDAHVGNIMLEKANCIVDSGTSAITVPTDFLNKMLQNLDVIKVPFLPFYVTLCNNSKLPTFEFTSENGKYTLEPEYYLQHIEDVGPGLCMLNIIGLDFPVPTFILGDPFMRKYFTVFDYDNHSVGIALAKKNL
Plasmepsin 4 (Plasmodium falciparum), sequence (Q17SB2 1-448): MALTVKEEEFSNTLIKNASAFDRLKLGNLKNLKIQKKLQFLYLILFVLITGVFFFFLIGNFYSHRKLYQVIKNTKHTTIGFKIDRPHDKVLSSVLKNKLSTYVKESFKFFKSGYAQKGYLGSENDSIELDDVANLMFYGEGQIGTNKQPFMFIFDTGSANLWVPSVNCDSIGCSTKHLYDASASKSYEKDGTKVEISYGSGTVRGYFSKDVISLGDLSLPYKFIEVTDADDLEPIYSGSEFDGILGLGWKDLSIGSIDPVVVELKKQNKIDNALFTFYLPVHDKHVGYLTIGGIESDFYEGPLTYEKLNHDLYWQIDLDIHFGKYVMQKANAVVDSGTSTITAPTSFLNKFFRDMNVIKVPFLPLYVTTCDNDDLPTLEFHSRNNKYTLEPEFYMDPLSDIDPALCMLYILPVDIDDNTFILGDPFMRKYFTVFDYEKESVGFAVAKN
Plasmepsin 4, sequence (Q17SB2 whole entry): as the sequence (Q17SB2 1-448) above
Plasmepsin II, sequence (P46925 whole entry): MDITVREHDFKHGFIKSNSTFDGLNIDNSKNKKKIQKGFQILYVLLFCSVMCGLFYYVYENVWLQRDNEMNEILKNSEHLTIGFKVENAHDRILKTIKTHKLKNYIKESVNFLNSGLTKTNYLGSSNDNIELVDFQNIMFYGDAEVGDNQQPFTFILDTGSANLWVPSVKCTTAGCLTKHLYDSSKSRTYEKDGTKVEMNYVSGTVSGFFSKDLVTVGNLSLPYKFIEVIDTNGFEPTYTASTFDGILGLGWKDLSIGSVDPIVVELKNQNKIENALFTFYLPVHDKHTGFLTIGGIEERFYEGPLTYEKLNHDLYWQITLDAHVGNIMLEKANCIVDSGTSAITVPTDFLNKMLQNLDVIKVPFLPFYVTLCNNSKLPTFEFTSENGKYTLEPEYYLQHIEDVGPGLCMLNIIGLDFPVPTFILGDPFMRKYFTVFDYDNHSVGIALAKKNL

IC50 [1]: 1.84 µM
SMILES: CC[C@H](C)[C@H](NC(=O)OC(C)(C)C)C(=O)N[C@@H](Cc1ccccc1)[C@H](O)CN1CCN(C[C@@H](O)[C@H](Cc2ccccc2)NC(=O)[C@@H](NC(=O)OC(C)(C)C)[C@@H](C)CC)CC1

IC50 [1]: 20.3 µM
SMILES: O=C(CN1C(=O)c2ccccc2C1=O)NC(Cc1ccccc1)C(O)CN1CCN(C[C@@H](O)[C@H](Cc2ccccc2)NC(=O)CN2C(=O)c3ccccc3C2=O)CC1 (single isomer, unassigned)

IC50 [1]: 3.47 µM
SMILES: N[C@@H](Cc1ccccc1)[C@H](O)CN1CCN(C[C@@H](O)[C@@H](N)Cc2ccccc2)CC1

IC50 [1]: 19 µM
SMILES: Cc1ccc2c(c1)C(=O)N([C@@H](C)C(=O)NC(Cc1ccccc1)C(O)CN1CCN(C[C@@H](O)[C@H](Cc3ccccc3)NC(=O)[C@H](C)N3C(=O)c4ccc(C)cc4C3=O)CC1)C2=O (single isomer, unassigned)

IC50 [1]: 2.26 µM
SMILES: Cc1ccc2c(c1)C(=O)N([C@H](C(=O)NC(Cc1ccccc1)C(O)CN1CCN(C[C@@H](O)[C@H](Cc3ccccc3)NC(=O)[C@H](C(C)C)N3C(=O)c4ccc(C)cc4C3=O)CC1)C(C)C)C2=O (single isomer, unassigned)

SMILES: C[C@@H]1CC[C@H]2[C@@H](C)C(=O)O[C@@H]3O[C@@]4(C)CC[C@@H]1[C@]32OO4 [ARTEMISININ]
IC50 [1]: 0.074 µM

SMILES: Cc1ccc2c(c1)C(=O)N([C@@H](CC(C)C)C(=O)NC(Cc1ccccc1)C(O)CN1CCN(C[C@@H](O)[C@H](Cc3ccccc3)NC(=O)[C@H](CC(C)C)N3C(=O)c4ccc(C)cc4C3=O)CC1)C2=O (single isomer, unassigned)
inhibition [2]: > 50%
inhibition [3]: > 50%
inhibition [4]: Dose-dependent effect
Ki [5]: 1.92 µM
inhibition [6]: Dose-dependent effect
Ki [7]: 1.98 µM
IC50 [1]: 2.27 µM
IC50 [8]: 27 µM
IC50 [9]: 60 µM
selectivity ratio [10]: > 10
selectivity ratio [11]: > 10

IC50 [1]: 8.28 µM
SMILES: C[C@H](NC(=O)OC(C)(C)C)C(=O)N[C@@H](Cc1ccccc1)[C@H](O)CN1CCN(C[C@H](O)[C@@H](Cc2ccccc2)NC(=O)[C@H](C)NC(=O)OC(C)(C)C)CC1

SMILES: Cc1ccc2c(c1)C(=O)N(CC(=O)N[C@@H](Cc1ccccc1)[C@H](O)CN1CCN(C[C@H](O)[C@@H](Cc3ccccc3)NC(=O)CN3C(=O)c4ccc(C)cc4C3=O)CC1)C2=O
inhibition [2]: > 50%
inhibition [3]: > 50%
inhibition [4]: Dose-dependent effect
inhibition [6]: Dose-dependent effect
Ki [7]: 3.35 µM
IC50 [1]: 10.8 µM

IC50 [1]: 2.72 µM
SMILES: CC(C)[C@H](N)C(=O)NC(Cc1ccccc1)C(O)CN1CCN(C[C@@H](O)[C@H](Cc2ccccc2)NC(=O)[C@@H](N)C(C)C)CC1 (single isomer, unassigned)

IC50 [1]: 8.6 µM
SMILES: CC(C)(C)OC(=O)NCC(=O)NC(Cc1ccccc1)C(O)CN1CCN(C[C@@H](O)[C@H](Cc2ccccc2)NC(=O)CNC(=O)OC(C)(C)C)CC1 (single isomer, unassigned)

IC50 [1]: 1.35 µM
SMILES: CC[C@H](C)[C@H](N)C(=O)N[C@@H](Cc1ccccc1)[C@H](O)CN1CCN(C[C@@H](O)[C@H](Cc2ccccc2)NC(=O)[C@@H](N)[C@@H](C)CC)CC1
IC50 [8]: 125 µM
IC50 [9]: > 156 µM
selectivity ratio [10]: > 10
selectivity ratio [11]: > 10

SMILES: CC[C@H](C)[C@@H](C(=O)N[C@@H](Cc1ccccc1)[C@H](O)CN1CCN(C[C@@H](O)[C@H](Cc2ccccc2)NC(=O)[C@H]([C@@H](C)CC)N2C(=O)c3ccc(C)cc3C2=O)CC1)N1C(=O)c2ccc(C)cc2C1=O
inhibition [2]: > 50%
inhibition [3]: > 50%
inhibition [4]: Dose-dependent effect
inhibition [6]: Dose-dependent effect
Ki [7]: 0.841 µM
IC50 [1]: 3.11 µM

IC50 [1]: 6.98 µM
SMILES: C[C@H](N)C(=O)NC(Cc1ccccc1)C(O)CN1CCN(C[C@@H](O)[C@H](Cc2ccccc2)NC(=O)[C@H](C)N)CC1 (single isomer, unassigned)

IC50 [1]: 4.38 µM
SMILES: CC(C)[C@H](NC(=O)OC(C)(C)C)C(=O)N[C@@H](Cc1ccccc1)[C@H](O)CN1CCN(C[C@H](O)[C@@H](Cc2ccccc2)NC(=O)[C@@H](NC(=O)OC(C)(C)C)C(C)C)CC1

IC50 [1]: 7.6 µM
SMILES: C[C@@H](C(=O)NC(Cc1ccccc1)C(O)CN1CCN(C[C@@H](O)[C@H](Cc2ccccc2)NC(=O)[C@H](C)N2C(=O)c3ccccc3C2=O)CC1)N1C(=O)c2ccccc2C1=O (single isomer, unassigned)
